Laboratory results: publication PMC12004446, “Inhibition by 4-(4-Bromo-2-oxo-3H-benzimidazol-1-yl)-N-(4-iodophenyl)piperidine-1-carboxamide (TH5487) of the Activity of Human 8-Oxoguanine DNA Glycosylase-1 (OGG1) for the Excision of 2,6-Diamino-4-hydroxy-5-formamidopyrimidine, 4,6-Diamino-5-formamidopyrimidine, and 8-Oxoguanine from Oxidatively …” (Biochemistry, 2025)

Target: T1, human 8-oxoguanine DNA glycosylase-1 (hOGG1) (Homo sapiens, UniProt O15527)
T1 construct: gene OGG1
Experiment: fluorescence-based 8-oxo-Gua duplex oligodeoxynucleotide incision assay with purified hOGG1; also GC-MS/MS of lesion excision from genomic DNA
Type: biochemical

T1 sequence (O15527 whole entry): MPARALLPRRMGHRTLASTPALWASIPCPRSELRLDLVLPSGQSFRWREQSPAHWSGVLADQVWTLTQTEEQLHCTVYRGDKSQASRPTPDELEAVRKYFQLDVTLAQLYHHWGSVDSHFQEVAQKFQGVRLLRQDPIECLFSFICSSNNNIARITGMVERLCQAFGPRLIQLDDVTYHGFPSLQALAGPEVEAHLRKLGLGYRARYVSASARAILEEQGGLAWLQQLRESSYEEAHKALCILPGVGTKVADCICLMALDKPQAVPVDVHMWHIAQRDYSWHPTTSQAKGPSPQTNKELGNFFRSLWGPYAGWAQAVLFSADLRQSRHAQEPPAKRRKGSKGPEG

IC50: 800 nM
SMILES: O=C(Nc1ccc(I)cc1)N1CCC(n2c(=O)[nH]c3c(Br)cccc32)CC1 [TH5487, 4-(4-bromo-2-oxo-3H-benzimidazol-1-yl)-N-(4-iodophenyl)piperidine-1-carboxamide]
